Experimental findings from ChEMBL document CHEMBL3286233, “Design and synthesis of systemically active metabotropic glutamate subtype-2 and -3 (mGlu2/3) receptor positive allosteric modulators (PAMs): pharmacological characterization and assessment in a rat model of cocaine dependence” (J Med Chem, 2014) are described below.

Series [1] concerns Rattus norvegicus. In words: AUC (0 to t) in rat at 20 mg/kg, po. Format: ADME, organism-based, Plasma. Further details: dose 20 mg/kg, route oral. The note with it: in vivo.
In series [2] the test system is Rattus norvegicus. In words: Cmax in rat at 20 mg/kg, po. Format: ADME, organism-based. Further details: dose 20 mg/kg, route oral. The note with it: in vivo.
For series [3], the system named is Rattus norvegicus. In words: Volume of distribution at steady state in rat at 2 mg/kg, iv. Format: ADME, organism-based. Also noted: dose 2 mg/kg, route intravenous. The note with it: in vivo.
In series [4] the test system is Rattus norvegicus. In words: Tmax in rat at 20 mg/kg, po. Format: ADME, organism-based. Further details: dose 20 mg/kg, route oral. The note with it: in vivo.
The test system of another series is Plasma. In words: Plasma concentration in rat at 20 mg/kg, po. Further details: dose 20 mg/kg, route oral. The format is ADME, organism-based. The note with it: in vivo.
Series [5] concerns Rattus norvegicus. In words: Cmax in rat at 2 mg/kg, iv. Also noted: dose 2 mg/kg, route intravenous. Conditions: in vivo. Format: ADME, organism-based.
A further series relates to Brain. In words: Drug uptake in rat brain at 20 mg/kg, po. The format is ADME, organism-based. Also noted: dose 20 mg/kg, route oral. Conditions: in vivo, read-out: Drug uptake.
Series [6] relates to Rattus norvegicus. In words: AUC (0 to t) in rat at 2 mg/kg, iv. Further details: dose 2 mg/kg, route intravenous. Format: ADME, organism-based, Plasma. Conditions: in vivo.
Series [7] can be described thus: Tmax in rat at 10 mg/kg, ip. The format is ADME, organism-based. Further details: dose 10 mg/kg, route intraperitoneal. The note with it: in vivo.
Another series relates to Nucleic Acid. In words: Ratio of drug uptake from brain to plasma in rat after 30 mins. The note with it: 0.5 h. The format is ADME.

A word on the Cmax: it is the highest concentration seen after dosing. What is called Vdss is the apparent volume that relates the amount in the body to the concentration in plasma or blood. Read a high Vdss as extensive tissue distribution. The Tmax is the time from dosing to the highest level. As for `Cc1c(OCCCCOc2ccc(C(=O)O)cc2)ccc(C(=O)CC(C)C)c1O`, the results for the AUCt in the series on Rattus norvegicus [1] and in the series on Rattus norvegicus [6] were 544.8 µmol·min/L and 231.7 µmol·min/L, respectively. The results for the peak concentration (Cmax) with Rattus norvegicus [2] and in the series on Rattus norvegicus [5] were 2.57 µM and 5 µM, respectively. Also, in the series on Rattus norvegicus [3], the volume of distribution (Vdss) was determined as 0.81 L/kg. Also, in the series with Rattus norvegicus [4], the Tmax was 135 min. Besides, the concentration amounted to 5.29 µM with Plasma and 1.12 µM in the series with Brain.
Consider `Cc1c(OCCCCOc2ccc(F)c(C(=O)O)c2)ccc(C(=O)CC(C)C)c1O`, for which the AUCt in the series with Rattus norvegicus [1] is 720.5 µmol·min/L; with Rattus norvegicus [6] it was 123.7 µmol·min/L. Also, the values for the Cmax with Rattus norvegicus [2] and with Rattus norvegicus [5] were 12.5 µM and 3.52 µM, respectively. This compound also yielded a volume of distribution (Vdss) in the series with Rattus norvegicus [3] of 0.89 L/kg. The time of peak concentration (Tmax) in the series on Rattus norvegicus [4] is 30 min. Also, the concentration in the series on Plasma amounted to 4.23 µM; in the series with Brain, 0.23 µM.
For `COc1cc(C(=O)O)ccc1OCCCCOc1ccc(C(=O)CC(C)C)c(O)c1C`, the values for the AUCt in the series with Rattus norvegicus [1] and in the series on Rattus norvegicus [6] were 1274.6 µmol·min/L and 304.6 µmol·min/L, respectively. Moreover, the Tmax in series [7] stood at 30 min; in the series on Rattus norvegicus [4] it was 90 min. For the same compound, the results for the Cmax in the series with Rattus norvegicus [2] and in the series on Rattus norvegicus [5] were 2.75 µM and 6.43 µM, respectively. The compound further displayed a distribution volume (Vdss) with Rattus norvegicus [3] of 0.55 L/kg. In addition, the concentration with Plasma came out at 16.4 µM; in the series on Brain it was 0.81 µM.
For `COc1ccc(C(=O)O)cc1OCCCCOc1ccc(C(=O)CC(C)C)c(O)c1C`, the AUCt in the series on Rattus norvegicus [1] came out at 466.2 µmol·min/L; in the series with Rattus norvegicus [6], 77.2 µmol·min/L. For the same compound, the Cmax in the series with Rattus norvegicus [2] is 1.05 µM; in the series with Rattus norvegicus [5], 2.15 µM. In the series with Rattus norvegicus [3], this compound displayed a distribution volume (Vdss) of 2.87 L/kg. Besides, the Tmax with Rattus norvegicus [4] amounted to 96 min.
With `CCC(=O)c1ccc(OCCCCOc2ccc(F)c(C(=O)O)c2)c(C)c1O`, in series [7], the Tmax turned out to be 30 min.
Regarding `CCCC(=O)c1ccc(OCCCCOc2cc(C(=O)O)ccc2OC)c(C)c1O`, the Tmax in series [7] is 30 min.
As for `COc1ccc(C(=O)O)cc1OCCCCOc1ccc(C(=O)CC(C)(C)C)c(O)c1C`, the time to peak (Tmax) in [7] worked out at 30 min.
Turning to `COc1cc(C(=O)O)ccc1OCCCCOc1ccc(C(=O)CC(C)(C)C)c(O)c1C`, in series [7], the time of peak concentration (Tmax) is 30 min. Moreover, the BPR in the series with Nucleic Acid was 0.02.
As for `Cc1c(OCCCCOc2ccc(C(=O)CC(C)(C)C)c(O)c2C)cccc1C(=O)O`, the Tmax in [7] was determined as 30 min.
The same measure, in the same setting: then `Cc1c(OCCCCOc2ccc(F)c(C(=O)O)c2)ccc(C(=O)CC(C)(C)C)c1O`, with 30 min.
